{"source": "ChEMBL document CHEMBL2331208", "about": "“Steroids glycosylated with both D- and L-arabinoses from the South China Sea gorgonian Dichotella gemmacea” (J Nat Prod, 2013)", "key": {"MG-63": {"test_system": "MG-63", "assay": "Cytotoxicity against human MG63 cells by MTT assay", "format": "functional, cell-based"}, "A549": {"test_system": "A549", "assay": "Cytotoxicity against human A549 cells by MTT assay", "format": "functional, cell-based"}}, "note": "Structures can show the parent of a compound that is named as a salt.", "data": [{"smiles": "COc1cccc2c1C(=O)c1c(O)c3c(c(O)c1C2=O)C[C@@](O)(C(=O)CO)C[C@@H]3O[C@H]1C[C@H](N)[C@H](O)[C@H](C)O1", "note": "[DOXORUBICIN HYDROCHLORIDE]", "values": [{"measurement": "IC50", "setting": "MG-63", "value": 3.4, "unit": "µM"}]}, {"smiles": "CC(=O)OC(C)(C)CCC[C@@H](C)[C@H]1CC[C@H]2[C@@H]3CC=C4C[C@@H](O[C@H]5OC[C@H](O)[C@H](O)[C@H]5O)CC[C@]4(CO)[C@H]3CC[C@]12C", "note": "[JUNCEELLOSIDE C]", "values": [{"measurement": "IC50", "setting": "MG-63", "value": 17.2, "unit": "µM"}, {"measurement": "IC50", "setting": "A549", "value": 11.4, "unit": "µM"}]}, {"smiles": "C=C(CC[C@@H](C)[C@H]1CC[C@H]2[C@@H]3CC=C4C[C@@H](O[C@H]5OC[C@H](O)[C@H](O)[C@H]5O)CC[C@]4(CO)[C@H]3CC[C@]12C)C(C)(C)OC(C)=O", "note": "[JUNCEELLOSIDE E]", "values": [{"measurement": "IC50", "setting": "MG-63", "value": "> 50", "unit": "µM"}, {"measurement": "IC50", "setting": "A549", "value": "> 50", "unit": "µM"}]}, {"smiles": "CC(=O)OC(C)(C)C/C=C/[C@@H](C)[C@H]1CC[C@H]2[C@@H]3CC=C4C[C@@H](O[C@@H]5OC[C@@H](O)[C@@H](O)[C@@H]5O)CC[C@]4(CO)[C@H]3CC[C@]12C", "note": "[JUNCEELLOSIDE F]", "values": [{"measurement": "IC50", "setting": "MG-63", "value": 23, "unit": "µM"}, {"measurement": "IC50", "setting": "A549", "value": "> 50", "unit": "µM"}]}, {"smiles": "CC(=O)O[C@@H]1[C@H](O[C@H]2CC[C@@]3(CO)C(=CC[C@@H]4[C@@H]3CC[C@]3(C)[C@@H]([C@H](C)CCCC(C)(C)OC(C)=O)CC[C@@H]43)C2)OC[C@@H](O)[C@H]1O", "note": "[JUNCEELLOSIDE G]", "values": [{"measurement": "IC50", "setting": "MG-63", "value": 23, "unit": "µM"}, {"measurement": "IC50", "setting": "A549", "value": 13.9, "unit": "µM"}]}]}
